Laboratory results as given in PubChem BioAssay AID330 (DTP/NCI, 2004).
Values joined by “and” are separate entries in the source; they are usually repeats but may differ in a detail not shown here. Equal values may be shown once. Inconclusive results and toxic doses are left out.

System: P388 leukemia ip, CD2F1 mice, survival T/C
Assay: NCI In Vivo Anticancer Drug Screen. Data for tumor model P388 Leukemia (intraperitoneal) in CD2F1 (CDF1) mice
Conditions: endpoint: median survival time, higher = longer survival
In short: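 Mice carrying the transplanted tumor received test compound or vehicle. Survival was recorded in each group, and the value is the treated-group measurement divided by that of the vehicle-treated control group.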

## COc1cc2cc(c1Cl)N(C)C(=O)C[C@H](OC(=O)[C@H](C)N(C)C(C)=O)[C@]1(C)O[C@H]1[C@H](C)[C@@H]1C[C@@](O)(NC(=O)O1)[C@H](OC)C=C/C=C(\C)C2
dose: 0.01 mg/kg/injection, schedule: Q01DX005 (iv), vehicle: saline
  T/C: 117 % of control
dose: 0.03 mg/kg/injection, schedule: Q01DX005 (iv), vehicle: saline
  T/C: 107 % of control
dose: 0.05 mg/kg/injection, schedule: Q01DX005 (ip), vehicle: saline
  T/C: 158 % of control
dose: 0.05 mg/kg/injection, schedule: Q01DX005 (iv), vehicle: saline
  T/C: 104 % of control
dose: 0.05 mg/kg/injection, schedule: Q04DX002 (ip), vehicle: saline + alcohol
  T/C: 169 % of control
dose: 0.08 mg/kg/injection, schedule: Q04DX002 (ip), vehicle: saline + alcohol
  T/C: 171 % of control
dose: 0.1 mg/kg/injection, schedule: Q01DX005 (ip), vehicle: saline
  T/C: 172 % of control
dose: 0.1 mg/kg/injection, schedule: Q01DX005 (iv), vehicle: saline
  T/C: 107 % of control
dose: 0.16 mg/kg/injection, schedule: Q04DX003 (ip), vehicle: saline
  T/C: 123 % of control
dose: 0.1 micrograms/kg/injection, schedule: Q01DX009 (ip), vehicle: saline
  T/C: 100 % of control
dose: 0.3 micrograms/kg/injection, schedule: Q03HX016 (ip), vehicle: other
  T/C: 122 % of control
dose: 0.4 micrograms/kg/injection, schedule: Q01DX009 (ip), vehicle: saline
  T/C: 112 % of control
dose: 0.5 micrograms/kg/injection, schedule: Q01DX009 (oral), vehicle: other
  T/C: 100 % of control
dose: 0.5 micrograms/kg/injection, schedule: Q01DX009 (sc), vehicle: other
  T/C: 100 % of control
dose: 0.5 micrograms/kg/injection, schedule: Q03HX008 (ip), vehicle: other
  T/C: 122 % of control
dose: 0.8 micrograms/kg/injection, schedule: Q01DX009 (ip), vehicle: saline
  T/C: 120 % of control
dose: 1.0 micrograms/kg/injection, schedule: Q01DX001 (ip), vehicle: other
  T/C: 109 % of control
dose: 1.0 micrograms/kg/injection, schedule: Q01DX009 (ip), vehicle: saline + alcohol
  T/C: 111 % of control
dose: 1.0 micrograms/kg/injection, schedule: Q01DX009 (oral), vehicle: other
  T/C: 100 % of control
dose: 1.0 micrograms/kg/injection, schedule: Q01DX009 (sc), vehicle: other
  T/C: 100 % of control
dose: 1.0 micrograms/kg/injection, schedule: Q08DX002 (ip), vehicle: other
  T/C: 109 % of control
dose: 2.0 micrograms/kg/injection, schedule: Q01DX001 (oral), vehicle: other
  T/C: 100 % of control
dose: 2.0 micrograms/kg/injection, schedule: Q01DX001 (sc), vehicle: other
  T/C: 100 % of control
dose: 2.0 micrograms/kg/injection, schedule: Q01DX009 (ip), vehicle: water
  T/C: 117 % of control
dose: 2.0 micrograms/kg/injection, schedule: Q01DX009 (sc), vehicle: other
  T/C: 100 % of control
dose: 3.1 micrograms/kg/injection, schedule: Q01DX009 (ip), vehicle: saline + alcohol
  T/C: 158 % of control
dose: 4.0 micrograms/kg/injection, schedule: Q01DX001 (oral), vehicle: other
  T/C: 100 % of control
dose: 4.0 micrograms/kg/injection, schedule: Q01DX009 (ip), vehicle: other
  T/C: 154 % of control
dose: 4.0 micrograms/kg/injection, schedule: Q01DX009 (ip), vehicle: water
  T/C: 157 % of control
dose: 4.0 micrograms/kg/injection, schedule: Q01DX009 (oral), vehicle: other
  T/C: 104 % of control
dose: 4.0 micrograms/kg/injection, schedule: Q01DX009 (sc), vehicle: other
  T/C: 100 % of control
dose: 4.0 micrograms/kg/injection, schedule: Q03HX016 (ip), vehicle: other
  T/C: 159 % of control
dose: 6.3 micrograms/kg/injection, schedule: Q01DX009 (ip), vehicle: saline + alcohol
  T/C: 160 % of control
dose: 6.3 micrograms/kg/injection, schedule: Q01DX009 (ip), vehicle: saline
  T/C: 159 % of control
dose: 8.0 micrograms/kg/injection, schedule: Q01DX001 (oral), vehicle: other
  T/C: 104 % of control
dose: 8.0 micrograms/kg/injection, schedule: Q01DX001 (sc), vehicle: other
  T/C: 100 % of control
dose: 8.0 micrograms/kg/injection, schedule: Q01DX005 (ip), vehicle: saline + alcohol
  T/C: 157 % of control
dose: 8.0 micrograms/kg/injection, schedule: Q01DX009 (ip), vehicle: other
  T/C: 154 % of control
dose: 8.0 micrograms/kg/injection, schedule: Q01DX009 (ip), vehicle: water
  T/C: 150 % of control
dose: 8.0 micrograms/kg/injection, schedule: Q01DX009 (oral), vehicle: other
  T/C: 100 % of control
dose: 8.0 micrograms/kg/injection, schedule: Q01DX009 (sc), vehicle: other
  T/C: 100 % of control
dose: 8.0 micrograms/kg/injection, schedule: Q03HX008 (ip), vehicle: other
  T/C: 163 % of control
dose: 8.0 micrograms/kg/injection, schedule: Q03HX016 (ip), vehicle: other
  T/C: 163 % of control
dose: 8.0 micrograms/kg/injection, schedule: Q03HX016 (ip), vehicle: saline + alcohol
  T/C: 163 % of control
dose: 8.0 micrograms/kg/injection, schedule: Q04DX003 (ip), vehicle: other
  T/C: 150 % of control
dose: 12.5 micrograms/kg/injection, schedule: Q01DX009 (ip), vehicle: saline + alcohol
  T/C: 159 % of control and 172 % of control
dose: 16.0 micrograms/kg/injection, schedule: Q01DX001 (oral), vehicle: other
  T/C: 100 % of control
dose: 16.0 micrograms/kg/injection, schedule: Q01DX001 (sc), vehicle: other
  T/C: 100 % of control
dose: 16.0 micrograms/kg/injection, schedule: Q01DX005 (ip), vehicle: saline + alcohol
  T/C: 155 % of control and 157 % of control and 160 % of control
dose: 16.0 micrograms/kg/injection, schedule: Q01DX009 (ip), vehicle: water
  T/C: 159 % of control
dose: 16.0 micrograms/kg/injection, schedule: Q01DX009 (oral), vehicle: other
  T/C: 100 % of control
dose: 16.0 micrograms/kg/injection, schedule: Q01DX009 (sc), vehicle: other
  T/C: 100 % of control
dose: 16.0 micrograms/kg/injection, schedule: Q03HX008 (ip), vehicle: saline + alcohol
  T/C: 163 % of control
dose: 16.0 micrograms/kg/injection, schedule: Q04DX003 (ip), vehicle: other
  T/C: 154 % of control
dose: 16.0 micrograms/kg/injection, schedule: Q04DX003 (ip), vehicle: water
  T/C: 151 % of control
dose: 25.0 micrograms/kg/injection, schedule: Q01DX009 (ip), vehicle: saline + alcohol
  T/C: 163 % of control
dose: 32.0 micrograms/kg/injection, schedule: Q01DX001 (oral), vehicle: other
  T/C: 100 % of control
dose: 32.0 micrograms/kg/injection, schedule: Q01DX001 (sc), vehicle: other
  T/C: 100 % of control
dose: 32.0 micrograms/kg/injection, schedule: Q01DX005 (ip), vehicle: saline + alcohol
  T/C: 163 % of control and 172 % of control
dose: 32.0 micrograms/kg/injection, schedule: Q01DX009 (oral), vehicle: other
  T/C: 109 % of control
dose: 32.0 micrograms/kg/injection, schedule: Q01DX009 (sc), vehicle: other
  T/C: 104 % of control
dose: 32.0 micrograms/kg/injection, schedule: Q03HX016 (ip), vehicle: saline + alcohol
  T/C: 163 % of control
dose: 32.0 micrograms/kg/injection, schedule: Q03HX024 (ip), vehicle: saline + alcohol
  T/C: 122 % of control
dose: 32.0 micrograms/kg/injection, schedule: Q04DX003 (ip), vehicle: other
  T/C: 172 % of control
dose: 50.0 micrograms/kg/injection, schedule: Q01DX005 (ip), vehicle: saline
  T/C: 173 % of control
dose: 50.0 micrograms/kg/injection, schedule: Q01DX009 (ip), vehicle: saline + alcohol
  T/C: 159 % of control
dose: 64.0 micrograms/kg/injection, schedule: Q01DX001 (oral), vehicle: other
  T/C: 100 % of control
dose: 64.0 micrograms/kg/injection, schedule: Q01DX001 (sc), vehicle: other
  T/C: 100 % of control
dose: 64.0 micrograms/kg/injection, schedule: Q01DX005 (ip), vehicle: saline + alcohol
  T/C: 173 % of control and 175 % of control
dose: 64.0 micrograms/kg/injection, schedule: Q01DX009 (oral), vehicle: other
  T/C: 104 % of control
dose: 64.0 micrograms/kg/injection, schedule: Q01DX009 (sc), vehicle: other
  T/C: 109 % of control
dose: 64.0 micrograms/kg/injection, schedule: Q03HX008 (ip), vehicle: saline + alcohol
  T/C: 159 % of control
dose: 64.0 micrograms/kg/injection, schedule: Q04DX003 (ip), vehicle: water
  T/C: 161 % of control
dose: 64.0 micrograms/kg/injection, schedule: Q08DX002 (ip), vehicle: other
  T/C: 150 % of control
dose: 86.4 micrograms/kg/injection, schedule: Q04DX002 (ip), vehicle: saline + alcohol
  T/C: 160 % of control
dose: 128.0 micrograms/kg/injection, schedule: Q01DX001 (ip), vehicle: other
  T/C: 154 % of control
dose: 128.0 micrograms/kg/injection, schedule: Q01DX001 (oral), vehicle: other
  T/C: 104 % of control
dose: 128.0 micrograms/kg/injection, schedule: Q01DX001 (sc), vehicle: other
  T/C: 109 % of control
dose: 128.0 micrograms/kg/injection, schedule: Q01DX009 (oral), vehicle: other
  T/C: 100 % of control
dose: 128.0 micrograms/kg/injection, schedule: Q01DX009 (sc), vehicle: saline + alcohol
  T/C: 154 % of control
dose: 128.0 micrograms/kg/injection, schedule: Q04DX003 (ip), vehicle: saline + alcohol
  T/C: 163 % of control
dose: 128.0 micrograms/kg/injection, schedule: Q04DX003 (ip), vehicle: water
  T/C: 150 % of control
dose: 128.0 micrograms/kg/injection, schedule: Q08DX002 (ip), vehicle: other
  T/C: 163 % of control
dose: 128.0 micrograms/kg/injection, schedule: Q08DX002 (ip), vehicle: saline + alcohol
  T/C: 163 % of control
dose: 128.0 micrograms/kg/injection, schedule: Q08DX002 (ip), vehicle: saline
  T/C: 154 % of control
dose: 144.0 micrograms/kg/injection, schedule: Q04DX002 (ip), vehicle: saline + alcohol
  T/C: 169 % of control
dose: 256.0 micrograms/kg/injection, schedule: Q01DX001 (ip), vehicle: other
  T/C: 150 % of control
dose: 256.0 micrograms/kg/injection, schedule: Q01DX001 (ip), vehicle: saline + alcohol
  T/C: 150 % of control
dose: 256.0 micrograms/kg/injection, schedule: Q01DX001 (oral), vehicle: other
  T/C: 104 % of control
dose: 256.0 micrograms/kg/injection, schedule: Q01DX009 (sc), vehicle: saline + alcohol
  T/C: 172 % of control
dose: 256.0 micrograms/kg/injection, schedule: Q08DX002 (ip), vehicle: saline
  T/C: 172 % of control
dose: 512.0 micrograms/kg/injection, schedule: Q01DX001 (ip), vehicle: saline + alcohol
  T/C: 154 % of control
dose: 512.0 micrograms/kg/injection, schedule: Q01DX001 (oral), vehicle: other
  T/C: 100 % of control
dose: 1024.0 micrograms/kg/injection, schedule: Q08DX002 (ip), vehicle: saline
  T/C: 109 % of control
